{"source": "patent US9132141B2", "about": "(priority 2012, dated 2015)", "key": {"PR8 [1]": {"test_system": "PR8", "assay": "Lung viral titers in PR8-infected mice", "assay_type": "in vivo", "conditions": "~7500 TCID50 PR8, 200 μg/mouse i.v. starting on day 2"}, "[2]": {"test_system": "A/California/07/2009, H1N1", "assay": "Direct antiviral effect: virus titration in MDCK cells"}, "PR8 [3]": {"test_system": "PR8", "assay": "Influenza-induced serum liver enzyme levels (ALT, AST) in PR8-infected mice", "assay_type": "in vivo, C57BL/6J WT mice", "conditions": "200 μg/mouse i.v. starting on day 2; serum day 7", "protocol": "Mice infected i.n. with 50 μl of PR8 (˜7500 TCID50/mouse). Mice injected i.v. with 100 μl of eritoran (200 μg/mouse) starting on day 2 post-infection. Serum was collected on day 7 from C57BL/6J WT mice that were either mock-infected with saline or infected with PR8 and were either left untreated or were treated with eritoran starting on day 2 post-infection. Alanine aminotransaminase (ALT) and aspartate aminotransaminase (AST) were measured (Siemens Healthcare Diagnostics, Ltd.). […] Data represent 2 separate experiments with 4 mice per treatment per experiment."}, "PR8 [4]": {"test_system": "PR8", "assay": "Influenza-induced cytokine and interferon mRNA in lungs of PR8-infected mice (real-time PCR)", "assay_type": "in vivo", "conditions": "200 μg/mouse i.v. starting on day 2"}, "PR8 [5]": {"test_system": "PR8", "assay": "Influenza-induced lung pathology in PR8-infected mice (H&E histology)", "assay_type": "in vivo", "conditions": "~7500 TCID50 PR8; 200 μg/mouse i.v. starting on day 2; day 7 post-infection", "protocol": "Mice were infected i.n. with 50 μl of PR8 (˜7500 TCID50/mouse). Mice were then injected i.v. with 100 μl of eritoran (200 μg/mouse) starting on day 2 post-infection. Mice were then sacrificed on day 7 post-infection (day […] post-eritoran treatment) and lungs harvested for lung pathology (4 mice/treatment group). Murine lungs were inflated and perfused and fixed with 4% PFA. Fixed sections (8 μm) of paraffin-embedded lungs were stained with hematoxylin and eosin (H&E). Slides were randomized, read blindly, and examined for tissue damage, necrosis, apoptosis, and proinflammatory cellular infiltration. […] Pulse oximetry measurements were performed to confirm these observations."}, "TLR4": {"molecular_target": "T1, TLR4 (Mus musculus, UniProt Q9JHF9+Q9QUK6)", "T1 construct": "endogenous in cells; host or cells: peritoneal macrophages from wild-type C57BL/6J mice", "T1 sequence (Q9QUK6 26-835)": "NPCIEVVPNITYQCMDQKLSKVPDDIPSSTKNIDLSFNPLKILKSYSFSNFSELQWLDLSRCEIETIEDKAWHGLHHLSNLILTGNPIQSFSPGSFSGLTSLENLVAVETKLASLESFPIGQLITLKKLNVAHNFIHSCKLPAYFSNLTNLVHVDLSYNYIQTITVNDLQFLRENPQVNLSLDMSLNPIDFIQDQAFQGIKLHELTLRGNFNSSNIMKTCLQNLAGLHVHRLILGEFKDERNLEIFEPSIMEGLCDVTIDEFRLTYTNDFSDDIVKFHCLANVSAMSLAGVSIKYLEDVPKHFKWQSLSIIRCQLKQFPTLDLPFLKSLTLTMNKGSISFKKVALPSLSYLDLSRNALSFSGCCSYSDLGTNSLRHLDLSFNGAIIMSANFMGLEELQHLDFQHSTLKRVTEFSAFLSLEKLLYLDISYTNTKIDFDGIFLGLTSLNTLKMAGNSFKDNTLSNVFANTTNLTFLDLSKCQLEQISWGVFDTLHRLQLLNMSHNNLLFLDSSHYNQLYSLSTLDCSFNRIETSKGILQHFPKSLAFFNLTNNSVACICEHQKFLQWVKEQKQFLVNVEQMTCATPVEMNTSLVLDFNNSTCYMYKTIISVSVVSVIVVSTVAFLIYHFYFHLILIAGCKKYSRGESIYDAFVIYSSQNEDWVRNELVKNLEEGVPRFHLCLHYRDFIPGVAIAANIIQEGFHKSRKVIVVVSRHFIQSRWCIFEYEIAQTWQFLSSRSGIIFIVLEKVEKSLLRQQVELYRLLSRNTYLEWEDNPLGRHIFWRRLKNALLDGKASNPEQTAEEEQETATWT", "T1 sequence (Q9JHF9 19-160)": "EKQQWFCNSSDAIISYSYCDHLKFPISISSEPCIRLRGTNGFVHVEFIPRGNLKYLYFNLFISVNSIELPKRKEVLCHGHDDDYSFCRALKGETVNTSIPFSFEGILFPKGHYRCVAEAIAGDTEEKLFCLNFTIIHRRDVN", "assay": "OxPAPC-induced IL-6 gene expression in peritoneal macrophages", "assay_type": "cell-based", "conditions": "pretreatment 10 ng/mL for 1 hour, OxPAPC 20 μg/mL", "protocol": "Wild-type C57BL/6J, TLR4^−/−, and TLR2^−/− peritoneal macrophages were pretreated with eritoran (10 ng/mL) for 1 hour and then treated with medium alone, LPS (20 ng/mL), P3C (300 ng/mL), or OxPAPC (20 μg/mL) and RNA expression was measured. Commercially obtained OxPAPC activated IL-6 gene expression in WT and TLR2^−/− mouse peritoneal macrophages, but not in cells from TLR4^−/− mice (FIG. 9). […] Data are means+/−s.e.m. from 1 experiment with samples done in triplicate (*p<0.001, #p<0.05)."}, "PR8 [6]": {"test_system": "PR8", "assay": "Survival of PR8-infected IFNβ−/− mice", "assay_type": "in vivo", "conditions": "~7500 TCID50 PR8; treated 2 days post-infection for 5 successive days", "description": "Wild-type and IFNβ^−/− mice were infected with ˜7500 TCID50 PR8 and were left either untreated (circles) or treated with eritoran 2 days post-infection, for 5 successive days (squares). (FIG. 11). Data represent the combined results of 2 separate experiments (6 mice per treatment per experiment; WT: untreated vs. eritoran treatment (p<0.0013); IFNβ^−/−: untreated v. eritoran treatment (p=ns)."}, "influenza": {"test_system": "influenza", "assay": "Survival of influenza-infected TLR2−/− and CD14−/− mice", "assay_type": "in vivo", "conditions": "treated 2 days post-infection for 5 successive days", "description": "Normal mice (WT), TLR4^−/−, TLR2^−/−, and CD14^−/− were infected with influenza and then were untreated (closed circles) or treated with eritoran (open circles) 2 days post-infection, for 5 successive days. (FIG. 13a). […] WT data were combined from 5 separate experiments (5-6 mice per treatment per experiment), TLR4^−/− data were combined from 3 separate experiments (5-6 mice per treatment per experiment), CD14^−/− data were combined from 2 separate experiments (4-5 mice per treatment per experiment). WT: untreated vs eritoran (p, 0.0001); TLR4^−/−: untreated vs. eritoran (p=ns); CD14^−/−: untreated vs. eritoran (p=ns); TLR2^−/−: untreated vs. eritoran (p=ns)."}, "PR8 [7]": {"test_system": "PR8", "assay": "Oxidized phospholipids in lungs of PR8-infected mice (MALDI-IMS)", "assay_type": "in vivo, mouse", "conditions": "PR8-infected mice with or without treatment", "description": "To assess the effect of eritoran on production of oxidized phospholipids during infection, MALDI-IMS was used to identify alterations in the lipid composition of mouse lungs after PR8, with or without eritoran treatment. […] (FIG. 10a). Results are representative of 4 replicate experiments. The structures of abundant phosphatidylcholine (PC) and predicted oxidized phosphatidylcholine (OxPC) molecules and molecular weights: 1-palmitoyl-2-linoleoyl PC (PLPC) m/z 757.6, 1-palmitoyl-2-arachadonyl PC (PAPC) m/z 782.1, and predicted structures of oxidized PC molecules and molecular weight, 1-palmitoyl-2-(9-oxo)nonanoyl PC (PONPC) m/z 649.4, (PEIPC) 1-palmitoyl-2-(5,6-epoxyisoprostance E2 oyl) PC m/z 828.1 are shown. (FIG. 10b)."}}}
{"smiles": "CCCCCC/C=C\\CCCCCCCCCC(=O)N[C@H]1[C@H](OC[C@H]2O[C@H](OP(=O)(O)O)[C@H](NC(=O)CC(=O)CCCCCCCCCCC)[C@@H](OCCCCCCCCCC)[C@@H]2O)O[C@H](COC)[C@@H](OP(=O)(O)O)[C@@H]1OCC[C@@H](CCCCCCC)OC", "note": "[eritoran, α-D-Glucopyranose, 3-O-decyl-2-deoxy-6-O-[2-deoxy-3-O-[(3R)-3-methoxydecyl)-6-O-methyl-2-[[(-11Z)-1-oxo-11-octadecenyl)amino]-4-O-phosphono-β-D-glucopyranosyl]-2-[(1,3-dioxotetradecyl)amino]-1-(dihydrogen phosphate)]", "values": [{"measurement": "lung viral titers on day 7", "setting": "PR8 [1]; day 7 post-infection", "value": "further decreased"}, {"measurement": "lung viral titers", "setting": "PR8 [1]; lungs harvested days 2, 4, 6", "value": "statistically significant decrease in lung viral titers"}, {"measurement": "Titer", "setting": "[2]; Experiment 1, 10 ng/mL applied 1 hour prior to virus", "value": "1.0 × 10^6 TCID50/ml"}, {"measurement": "Titer", "setting": "[2]; Experiment 1, 10 ng/mL applied at the same time as virus", "value": "3.1 × 10^6 TCID50/ml"}, {"measurement": "Titer", "setting": "[2]; Experiment 2, 10 ng/mL applied 1 hour prior to virus", "value": "3.4 × 10^5 TCID50/ml"}, {"measurement": "Titer", "setting": "[2]; Experiment 2, 10 ng/mL applied at the same time as virus", "value": "6.3 × 10^6 TCID50/ml"}, {"measurement": "liver enzyme levels (ALT, AST) in serum", "setting": "PR8 [3]", "value": "lower levels of liver enzymes post-infection"}, {"measurement": "cytokine gene expression in lung", "setting": "PR8 [4]; days 2, 4, 6 post-infection", "value": "significantly reduced cytokine gene expression at each time point"}, {"measurement": "interferon production (mRNA) in lung", "setting": "PR8 [4]; depends on interferon species", "value": "variable levels of interferon production compared to control mice"}, {"measurement": "lung sections nearly normal", "setting": "PR8 [5]", "value": "~80 % of lung sections"}, {"measurement": "lung sections showing inflammatory infiltrates", "setting": "PR8 [5]", "value": "~20 % of lung sections"}, {"measurement": "TLR4-dependent cell activation by OxPAPC (IL-6 gene expression)", "setting": "TLR4", "value": "substantially inhibited"}, {"measurement": "protection (survival) in IFNβ−/− mice", "setting": "PR8 [6]", "value": "does not induce protection"}, {"measurement": "protection (survival) in TLR2−/− or CD14−/− mice", "setting": "influenza", "value": "ineffective at inducing protection"}, {"measurement": "oxidation products of phospholipids in lung", "setting": "PR8 [7]", "value": "detected in greater abundance and intensity in PR8-infected versus mice that were treated with eritoran"}]}
